The source of these data is PMC4239038, “The Potent Cdc7-Dbf4 (DDK) Kinase Inhibitor XL413 Has Limited Activity in Many Cancer Cell Lines and Discovery of Potential New DDK Inhibitor Scaffolds” (PLoS ONE, 2014).

Where “and” joins values, the source holds several entries; their conditions need not be identical. Equal entries are not always repeated. Where two headings read alike, the source gives them in different places.

For assay [1], the system named is Colo-205 cells. Nature of the assay: Cell viability, CellTiter-Glo. It is filed as cell-based. The following applies: Homo sapiens.
For assay [2], the system named is Mcm2 phosphorylation in Colo-205 cells. Nature of the assay: Immunoblot of DDK-dependent Mcm2 phosphorylation. Particulars: Colo-205, 5 µM, 24 hours. It is filed as cell-based. (In general: In western blotting, separated proteins are transferred to a membrane and probed.)
Assay [3] concerns Mcm2 Serine 53 phosphorylation in HCC1954 cells. In words: Immunoblot of DDK-dependent Mcm2 phosphorylation. The class given is cell-based. On the procedure:
Whole cell extracts were prepared by re-suspending the pellets in RIPA buffer (150 mM NaCl, 1% NP-40, 0.5% sodium deoxycholate, 0.1% SDS, 50 mM Tris HCl, pH 8) containing protease inhibitors (100 µM PMSF, 1 mM Benzamide, 2.5 µg/ml Pepstatin A, 10 µg/ml Leupeptin, and 10 µg/ml Aprotinin) and phosphatase inhibitors (1 mM each NaF, Na3VO4 and Na4P2O7). Protein concentration was measured using the BCA protein assay kit (Pierce) according to manufacturer's protocol. Equal amounts of protein were subjected to SDS-PAGE and transferred to a nitrocellulose membrane (Millipore). Transfer efficiency and equal loading was confirmed by Ponceau S staining. Following primary and secondary antibody treatments, proteins were visualized using SuperSignal West Pico solutions (Thermo Scientific). Anti-Mcm2 and anti-S53-phospho-Mcm2 antibodies were purchased from Bethyl Laboratories; anti-β-actin was from Sigma; anti-mouse and anti-rabbit HRP antibodies were from GE Healthcare; and anti-Cdc7 and anti-Dbf4 antibodies were described previously.
Effective cellular uptake of the DDK inhibitor should compromise DDK activity in vivo. Among the many targets of DDK are components of the replicative Mcm2–7 helicase. Serine 53 of Mcm2 subunit is a well-characterized target site for DDK mediated phosphorylation. We quantitated levels of phosphorylation on this site as a measure of DDK activity in vivo. […] Cells were then harvested at 0, 24, 48, and 72 hours post drug addition to measure viable cells and Mcm2 phosphorylation by immunoblotting.

The next assay relates to MCF-7. Nature of the assay: Cell viability at 5 µM inhibitor. The following applies: MCF-7, 5 µM, 72 hrs, relative to vehicle.
In another assay the test system is HCT116 (p53-/-) cells. Nature of the assay: Cell viability, CellTiter-Glo. It is filed as cell-based. Particulars: Homo sapiens, HCT-116, 72 hrs post drug addition. Background: In ATP-based viability assays light output follows the ATP content of the culture.
In the next assay the test system is human cell lines. The following applies: average from 61 human cell lines ref 42,43; read-out: Cellular Proliferation IC50; cited from earlier work.
The test system of another assay is purified Cdk9. Set-up: method as in PMID 18469809. Particulars: purified Cdk9 ref 43; cited from earlier work.
For assay [4], the system named is HCC1954 cells. Nature of the assay: Cell viability, CellTiter-Glo. It is filed as cell-based. The following applies: Homo sapiens.
In assay [5] the test system is Colo-205 cells. The following applies: Colo-205, 24 hours.
A further assay concerns Eight tumor cell lines. In words: Cell viability at 5 µM inhibitor, cell line panel. It is filed as cell-based. The following applies: 72 hrs, relative to vehicle controls.
The next assay deals with MDA-MB-453. Nature of the assay: Cell viability at 5 µM inhibitor. Particulars: MDA-MB-453, 5 µM, 72 hrs, relative to vehicle.
The next assay deals with DDK. The following applies: read-out: DDK IC50 (in vitro), cited from earlier work.
The next assay has as its system HCT116 (p53+/+) cells. Nature of the assay: Cell viability, CellTiter-Glo. The class given is cell-based. The following applies: for IC50: Homo sapiens, HCT-116, HCT116 (p53+/+), 72 hrs post drug addition.
Assay [6] relates to HCC1954 cells. Nature of the assay: Caspase 3/7 activity (apoptosis). It is filed as cell-based. The following applies: for Apoptosis induction (Caspase 3/7 activity): HCC1954, 24 hours. On the procedure: Caspase 3/7 activity and viable cell number were then measured using the Caspase-Glo 3/7 assay (Promega) and CellTiter-Glo assay (Promega), respectively.
Assay [7] addresses T1, purified DDK (Homo sapiens, UniProt O00311).
T1 construct: His6-Smt3 (SUMO) (N, cleaved yes); made in house; host or cells: E. coli BL21-RIPL (pKT37, pETDuet-1 vector)
Nature of the assay: DDK thermal stability shift assay (TSA). It is filed as binding. The following applies: for ΔTm: titration, beginning at a 1 µM concentration.

Assay [8] deals with T1, purified DDK. In words: In vitro (γ)-32P ATP DDK kinase assay (DDK auto-phosphorylation). The following applies: increasing inhibitor concentrations. It is filed as biochemical.
Another assay deals with PKR. On the set-up: method as in PMID 12890478. Particulars: cited from earlier work.
Assay [9] concerns Colo-205 cells. On the set-up: method as in PMID 22560567. Particulars: Colo-205 ref 49; read-out: Cellular Proliferation IC50; cited from earlier work.
Another assay concerns panel of 100 kinases. Set-up: method as in PMID 22560567. Particulars: panel of 100 kinases ref 49; cited from earlier work.
The mark [10] stands for this setting: HCC1954, 72 h, HCC1954, 72 hrs post drug addition.

T1 sequence (O00311 whole entry): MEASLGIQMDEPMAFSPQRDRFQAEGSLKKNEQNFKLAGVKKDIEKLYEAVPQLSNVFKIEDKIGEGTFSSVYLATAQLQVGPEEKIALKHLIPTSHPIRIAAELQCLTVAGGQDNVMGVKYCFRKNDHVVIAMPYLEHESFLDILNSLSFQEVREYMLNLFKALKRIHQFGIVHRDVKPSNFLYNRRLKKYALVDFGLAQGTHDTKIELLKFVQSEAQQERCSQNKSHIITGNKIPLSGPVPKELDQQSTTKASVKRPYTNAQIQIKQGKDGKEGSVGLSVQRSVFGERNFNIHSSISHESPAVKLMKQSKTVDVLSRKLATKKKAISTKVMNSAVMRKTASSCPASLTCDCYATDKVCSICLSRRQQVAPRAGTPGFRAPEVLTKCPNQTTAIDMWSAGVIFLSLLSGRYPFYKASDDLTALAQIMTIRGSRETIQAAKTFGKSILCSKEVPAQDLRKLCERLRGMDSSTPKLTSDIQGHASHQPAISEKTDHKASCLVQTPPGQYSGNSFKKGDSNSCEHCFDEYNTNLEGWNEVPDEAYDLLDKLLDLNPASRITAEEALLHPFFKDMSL
T1 sequence (Q9UBU7 341-674 partner limits assumed): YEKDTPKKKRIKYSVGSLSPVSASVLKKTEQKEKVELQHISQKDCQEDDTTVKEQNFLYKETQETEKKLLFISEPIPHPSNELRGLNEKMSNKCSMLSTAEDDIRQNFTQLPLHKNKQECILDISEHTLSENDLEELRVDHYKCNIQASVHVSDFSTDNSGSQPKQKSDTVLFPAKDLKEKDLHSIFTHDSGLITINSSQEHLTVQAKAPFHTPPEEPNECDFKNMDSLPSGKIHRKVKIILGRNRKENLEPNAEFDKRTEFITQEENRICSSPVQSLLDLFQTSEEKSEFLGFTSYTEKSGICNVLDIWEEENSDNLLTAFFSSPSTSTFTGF

On to `O=C1NCCc2[nH]c(-c3ccncc3)cc21` [PHA-767491, 2-pyridin-4-yl-1,5,6,7-tetrahydro-pyrrolo[3,2-c]pyridin-4-one], for which the IC50 was 1300 nM in the assay on Colo-205 cells [1] (Colo-205, 72 hrs post drug addition); 1000 nM in the assay with HCT116 (p53-/-) cells; 3170 nM with human cell lines; 34 nM in the assay with purified Cdk9; 640 nM with HCC1954 cells [4] (HCC1954, 72 hrs post drug addition); 10 nM in the assay with DDK (purified kinase ref 42,43). The IC50 with HCT116 (p53+/+) cells is 450 nM. In addition, the Mcm2 phosphorylation entry in [2] was “completely abolished Mcm2 phosphorylation”; in [3] (HCC1954, 1 µM, 24 to 72 hours), “very little residual Mcm2 phosphorylation”; in [3] (HCC1954, 2 µM, by 24 hours), “completely abolished Mcm2 phosphorylation”. Further, the results for the Inhibition of proliferation in the assay on MCF-7 and with MDA-MB-453 were 2 fold and 2.5 fold, respectively. The “Apoptosis induction (Caspase 3/7 activity)” value (from here on “Apoptosis induction”) with Colo-205 cells [5] and in the assay with HCC1954 cells [6] was “induced apoptosis” in each case. Besides, the Anti-proliferative activity result with Eight tumor cell lines is on record as “significantly inhibited proliferation in all cell lines tested”.
As a reminder, the ΔTm is the shift of the melting midpoint relative to a reference. Take `O=C1Nc2ccc3ncsc3c2/C1=C/c1cnc[nH]1` [PKR inhibitor, (8Z)-8-(1H-imidazol-5-ylmethylidene)-6H-pyrrolo[2,3-g][1,3]benzothiazol-7-one]: the ΔTm at 20 µM on purified DDK [7] (library screen, 20 µM compound) was 2.4 °C. For the same molecule, at purified DDK [7], the ΔTm was at least 2 °C. Moreover, the IC50 is 67.5 nM and ~70 nM at purified DDK [8]; 210 nM with PKR; 1700 nM with HCC1954 cells [4] (setting [10]). Besides, the Mcm2 phosphorylation result in [3] (HCC1954, 2 µM PKR inhibitor) was “strongly inhibited Mcm2 phosphorylation”. In the assay with HCC1954 cells [6] (HCC1954, 2 µM, 24 hours), the “Increase of Caspase 3/7 activity relative to the DMSO control” value worked out at 20 fold.
Regarding `O=C1NC(=O)c2c1c1c3ccccc3n3c1c1c2c2ccccc2n1[C@H]1CC[C@@H]3O1` [SB 218078], the ΔTm at purified DDK [7] was at least 2 °C. The figures for the IC50 on purified DDK [8] and in the assay on HCC1954 cells [4] (setting [10]) were 19.3 nM and 2420 nM, respectively. In addition, the Mcm2 phosphorylation result in assay [3] (HCC1954, SB 218078) is reported as “modestly inhibits Mcm2 phosphorylation”. Besides, in the assay with HCC1954 cells [6], the “Apoptosis induction” value is “low levels of apoptosis were induced”.
With `O=c1[nH]c([C@@H]2CCCN2)nc2c1oc1ccc(Cl)cc12` [XL413, (S)-8-chloro-2-(pyrrolidin-2-yl)benzofuro[3,2-d]pyrimidin-4(3H)-one], the IC50 with Colo-205 cells [1] (COLO 205, 72 h, Colo-205, 72 hrs post drug addition) is 1100 nM; in the assay on Colo-205 cells [1] (COLO 205, 72 h, Colo-205, 72 hrs, XL413 from commercial supplier MedKoo) it was 600 nM; in the assay with Colo-205 cells [9], 2690 nM; on purified DDK [8], 22.7 nM; with HCT116 (p53-/-) cells, 36600 nM; in the assay with HCC1954 cells [4] (setting [10]), 22900 nM. Further, the IC50 in the assay on HCC1954 cells [4] (HCC1954, 72 h, XL413 from commercial supplier MedKoo) is 22400 nM; in the assay with DDK (purified DDK ref 49), 3.4 nM; with HCT116 (p53+/+) cells, 28700 nM. The Mcm2 phosphorylation entry in assay [2] is “completely abolished Mcm2 phosphorylation”; in assay [3] (HCC1954, 5 µM, 24 hrs) it was “did not inhibit Mcm2 phosphorylation”; in [3] (HCC1954, 5 µM, 72 hours) it was “only a modest decrease in Mcm2 phosphorylation”. Moreover, the “Selectivity for DDK” value in the assay on panel of 100 kinases was “highly selective for DDK”. The “Apoptosis induction” value with Colo-205 cells [5] and in the assay with HCC1954 cells [6] was “induced apoptosis only in the Colo-205 cells” throughout. Besides, the Anti-proliferative activity entry in the assay on Eight tumor cell lines is reported as “anti-proliferative only in the Colo-205 cells”. For the same molecule, in the assay with HCT116 (p53+/+) cells (two additional colorectal tumor cell lines (HCT116 p53+/+ and p53-/-)), the “IC50 higher than PHA-767491” value is 40- to 60 fold.
